Experimental data taken from ChEMBL document CHEMBL1156904, “Part II: piperazinyl-glutamate-pyridines as potent orally bioavailable P2Y12 antagonists for inhibition of platelet aggregation” (Bioorg Med Chem Lett, 2010).
Values after ≈ are worked out from the molar mass of the structure shown.

Legend:
[1] = Metabolic stability in human microsomes; assay type: ADME, Microsome
P2Y purinoceptor 12 [2] = target: T1, P2Y purinoceptor 12 (Homo sapiens, UniProt Q9H244); test: Inhibition of human P2Y12 receptor expressed in CHO cells
T1 sequence (Q9H244 whole entry): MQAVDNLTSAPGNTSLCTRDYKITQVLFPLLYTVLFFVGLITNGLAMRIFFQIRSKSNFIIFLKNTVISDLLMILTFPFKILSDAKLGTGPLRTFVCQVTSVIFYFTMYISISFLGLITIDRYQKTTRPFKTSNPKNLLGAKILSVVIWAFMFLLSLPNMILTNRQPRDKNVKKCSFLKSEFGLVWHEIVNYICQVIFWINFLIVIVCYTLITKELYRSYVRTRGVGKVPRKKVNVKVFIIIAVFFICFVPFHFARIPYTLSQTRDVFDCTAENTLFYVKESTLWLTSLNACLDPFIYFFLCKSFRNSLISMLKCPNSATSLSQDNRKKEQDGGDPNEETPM

[3] = Antiplatelet activity in human platelet rich plasma assessed as inhibition of ADP-induced platelet aggregation; assay type: functional
[4] = Metabolic stability in rat microsomes; assay type: ADME, Microsome
[5] = Antiplatelet activity in human platelet rich plasma assessed as inhibition of ADP-induced platelet aggregation relative to AZD-6140; assay type: functional
[6] = Volume of distribution at steady state in Sprague-Dawley rat at 2 mg/kg, iv and 5 mg/kg, po; assay type: ADME, organism-based; settings: in vivo, read-out: Vdss
[7] = Clearance in Sprague-Dawley rat at 2 mg/kg, iv and 5 mg/kg, po; assay type: ADME, organism-based; settings: in vivo
[8] = Effective half life in Sprague-Dawley rat at 2 mg/kg, iv and 5 mg/kg, po; assay type: ADME, organism-based; settings: in vivo, read-out: t1/2eff (converted)
[9] = Volume of distribution at steady state in Beagle dog at 0.2 mg/kg, iv and 0.2 mg/kg, po; assay type: ADME, organism-based, Canis lupus familiaris; settings: in vivo, read-out: Vdss
[10] = Effective half life in Beagle dog at 0.2 mg/kg, iv and 0.2 mg/kg, po; assay type: ADME, organism-based, Canis lupus familiaris; settings: in vivo
[11] = Clearance in Beagle dog at 0.2 mg/kg, iv and 0.2 mg/kg, po; assay type: ADME, organism-based, Canis lupus familiaris; settings: in vivo
[12] = Protein binding in human plasma assessed as fraction unbound at 10 uM
[13] = Solubility at pH 9.0; assay type: physicochemical; settings: buffer
[14] = Antiplatelet activity in human platelet rich plasma assessed as inhibition of ADP-induced platelet aggregation by chronolog PRP aggregometry assay; assay type: functional
[15] = Solubility at pH 6.5; assay type: physicochemical; settings: buffer
[16] = Protein binding in human plasma assessed as fraction unbound at 2 uM
[17] = target: Voltage-gated inwardly rectifying potassium channel KCNH2 (Homo sapiens, UniProt Q12809); test: Inhibition of human ERG
Chain of Voltage-gated inwardly rectifying potassium channel KCNH2 (Q12809 whole entry): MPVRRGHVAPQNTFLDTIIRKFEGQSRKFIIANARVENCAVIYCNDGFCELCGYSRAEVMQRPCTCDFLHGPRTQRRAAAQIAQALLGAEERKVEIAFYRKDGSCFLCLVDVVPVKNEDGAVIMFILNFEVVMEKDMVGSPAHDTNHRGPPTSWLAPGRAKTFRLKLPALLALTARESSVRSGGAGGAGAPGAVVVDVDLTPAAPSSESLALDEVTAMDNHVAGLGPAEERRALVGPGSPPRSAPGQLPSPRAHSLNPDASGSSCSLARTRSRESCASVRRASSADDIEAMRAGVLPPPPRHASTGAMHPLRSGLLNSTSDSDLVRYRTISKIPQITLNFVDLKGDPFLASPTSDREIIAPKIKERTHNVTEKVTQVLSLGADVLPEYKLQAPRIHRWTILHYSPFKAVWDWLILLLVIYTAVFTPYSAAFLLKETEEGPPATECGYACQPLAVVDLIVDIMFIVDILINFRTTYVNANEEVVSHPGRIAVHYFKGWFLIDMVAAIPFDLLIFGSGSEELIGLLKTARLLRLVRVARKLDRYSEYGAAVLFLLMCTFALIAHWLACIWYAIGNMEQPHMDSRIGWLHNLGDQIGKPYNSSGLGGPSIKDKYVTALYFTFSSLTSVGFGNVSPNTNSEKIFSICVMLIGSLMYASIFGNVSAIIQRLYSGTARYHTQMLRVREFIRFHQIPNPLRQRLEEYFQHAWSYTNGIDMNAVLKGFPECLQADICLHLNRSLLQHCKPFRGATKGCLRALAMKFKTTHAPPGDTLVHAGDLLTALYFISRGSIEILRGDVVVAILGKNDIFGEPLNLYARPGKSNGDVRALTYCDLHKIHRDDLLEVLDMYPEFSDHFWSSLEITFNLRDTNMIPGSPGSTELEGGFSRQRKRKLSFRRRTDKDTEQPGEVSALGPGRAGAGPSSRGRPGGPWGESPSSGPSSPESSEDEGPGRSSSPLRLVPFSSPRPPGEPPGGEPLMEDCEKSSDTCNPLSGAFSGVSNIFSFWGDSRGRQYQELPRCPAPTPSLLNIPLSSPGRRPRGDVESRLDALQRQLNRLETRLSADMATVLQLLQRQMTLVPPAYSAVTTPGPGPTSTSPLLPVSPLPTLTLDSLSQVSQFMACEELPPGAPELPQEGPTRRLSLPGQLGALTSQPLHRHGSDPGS

[18] = Protein binding in human plasma assessed as fraction unbound at 0.2 uM
[19] = Volume of distribution at steady state in Beagle dog at 0.5 mg/kg, iv and 1 mg/kg, po; assay type: ADME, organism-based, Canis lupus familiaris; settings: in vivo, read-out: Vdss
Rattus norvegicus [20] = test: Toxicity in rat administered as single dose; assay type: organism-based; settings: in vivo
[21] = Solubility at pH 2.0; assay type: physicochemical; settings: buffer
[22] = Effective half life in Beagle dog at 0.5 mg/kg, iv and 1 mg/kg, po; assay type: ADME, organism-based, Canis lupus familiaris; settings: in vivo
[23] = Clearance in Beagle dog at 0.5 mg/kg, iv and 1 mg/kg, po; assay type: ADME, organism-based, Canis lupus familiaris; settings: in vivo
P2Y purinoceptor 12 [24] = target: T1, P2Y purinoceptor 12; test: Inhibition of human P2Y12 receptor expressed in CHO cells in presence of 0.4% human serum albumin
Rattus norvegicus [25] = test: Toxicity in rat administered as 7 day repeat dose; assay type: organism-based; settings: in vivo, 168 h
in vivo = settings: Sprague-Dawley, rat, po, 5 mg/kg

Compound | Stability [1] | Ki (P2Y purinoceptor 12 [2]) | IC50 [3] | Stability [4] | fold change (FC) [5] | Vd [6] | clearance [7] | half-life [8] | also measured
CCCCCOC(=O)N1CCN(C(=O)[C@H](CCC(=O)O)NC(=O)c2cc(N3CCCC(CN4CCCC4)C3)cc(-c3ccccc3)n2)CC1 (stereo partly drawn) | Stable | 7.3 nM | 1700 nM | Stable | 1.5 | 1.8 L/kg | 47 mL/min/kg | 24 min | 
CCCCCOC(=O)N1CCN(C(=O)[C@H](CCC(=O)O)NC(=O)c2cc(N3CC[C@H](OCC(=O)N(C)C)C3)cc(-c3ccccc3)n2)CC1 | Stable | 5 nM | 660 nM | Stable | 0.75 | 0.8 L/kg | 41 mL/min/kg | 12 min | 
CCCCCOC(=O)N1CCN(C(=O)[C@H](CCC(=O)O)NC(=O)c2cc(N3CCC(C(=O)N(CC)CC)CC3)cc(-c3ccccc3)n2)CC1 | Stable | 4 nM | 520 nM | Stable | 0.65 | 2.5 L/kg | 13 mL/min/kg | 36 min | Vd [9]: 0.12 L/kg; half-life [10]: 42 min; clearance [11]: 2 mL/min/kg
CCCCCOC(=O)N1CCN(C(=O)[C@H](CCC(=O)O)NC(=O)c2cc(N3CC[C@@H](OCC(=O)N(CC)CC)C3)cc(-c3ccccc3)n2)CC1 | Stable | 3.5 nM | 330 nM | Stable | 0.38 | 2.1 L/kg | 87 mL/min/kg | 18 min | 
CCCCOC(=O)N1CCN(C(=O)[C@H](CCC(=O)O)NC(=O)c2cc(N3CCC(C(=O)N(CC)CC)CC3)cc(-c3ccccc3)n2)CC1 | Stable | 1.1 nM | 430 nM | Stable | 0.71 | 0.9 L/kg | 24 mL/min/kg | 24 min | 
CCCCOC(=O)N1CCN(C(=O)[C@H](CCC(=O)O)NC(=O)c2cc(N3CCC(C(=O)N4CCCC4)CC3)cc(-c3ccccc3)n2)CC1 | Stable | 2.1 nM | 360 nM | Stable | 0.54 | 0.7 L/kg | 5 mL/min/kg | 90 min | fraction unbound at 10 µM [12]: 0.033; solubility [13]: 969 µM (≈ 656 µg/mL); IC50 [14]: 255 nM; solubility [15]: 195 µM (≈ 132 µg/mL); fraction unbound at 2 µM [16]: 0.044; Kb [3]: 49 nM; IC50 [17]: > 90000 nM; fraction unbound at 0.2 µM [18]: 0.034; Vd [19]: 0.22 L/kg; Activity (Rattus norvegicus [20]): Non-toxic; solubility [21]: 921 µM (≈ 623 µg/mL); half-life [22]: 48 min; clearance [23]: 3 mL/min/kg; Ki (P2Y purinoceptor 12 [24]): 6.3 nM
CCCCCOC(=O)N1CCN(C(=O)[C@H](CCC(=O)O)NC(=O)c2cc(N3CCN(C(C)=O)CC3)cc(-c3ccccc3)n2)CC1 | Stable | 22 nM | 2300 nM | Stable | 2.7 | 2.4 L/kg | 70 mL/min/kg | 24 min | 
CCCCCOC(=O)N1CCN(C(=O)[C@H](CCC(=O)O)NC(=O)c2cc(N3CCC(C(=O)N4CCCC4)CC3)cc(-c3ccccc3)n2)CC1 | Stable | 2.8 nM | 400 nM | Stable | 0.65 | 0.5 L/kg | 5 mL/min/kg | 66 min | fraction unbound at 10 µM [12]: 0.061; solubility [13]: 1290 µM (≈ 892 µg/mL); IC50 [14]: 325 nM; solubility [15]: 48 µM (≈ 33.2 µg/mL); fraction unbound at 2 µM [16]: 0.057; Activity (Rattus norvegicus [25]): Non-toxic; Kb [3]: 68 nM; IC50 [17]: > 90000 nM; fraction unbound at 0.2 µM [18]: 0.053; Vd [19]: 0.18 L/kg; solubility [21]: 299 µM (≈ 207 µg/mL); half-life [22]: 60 min; clearance [23]: 2 mL/min/kg; Ki (P2Y purinoceptor 12 [24]): 6.7 nM
CCCCCOC(=O)N1CCN(C(=O)[C@H](CCC(=O)O)NC(=O)c2cc(N3CCC(C(N)=O)CC3)cc(-c3ccccc3)n2)CC1 | Stable | 6.5 nM | 2400 nM | Stable | 0.9 | 2.2 L/kg | 44 mL/min/kg | 36 min | bioavailability (in vivo): 2%
CCCCCOC(=O)N1CCN(C(=O)[C@H](CCC(=O)O)NC(=O)c2cc(N3CCC(C(=O)NCC)CC3)cc(-c3ccccc3)n2)CC1 | Stable | 0.58 nM | 650 nM | Stable | 1 | 0.3 L/kg | 11 mL/min/kg | 18 min | 
CCCCCOC(=O)N1CCN(C(=O)[C@H](CCC(=O)O)NC(=O)c2cc(N3CCC(COC)CC3)cc(-c3ccccc3)n2)CC1 | Stable |  | 3900 nM | Stable | 3.3 |  |  |  | Vd [9]: 0.14 L/kg; half-life [10]: 90 min; clearance [11]: 1 mL/min/kg
CCCCCOC(=O)N1CCN(C(=O)[C@H](CCC(=O)O)NC(=O)c2cc(N3CCC(C(=O)N4CCC4)CC3)cc(-c3ccccc3)n2)CC1 | Stable | 1.2 nM | 410 nM | Stable | 0.64 | 0.2 L/kg | 9 mL/min/kg | 18 min | 
CCCCCOC(=O)N1CCN(C(=O)[C@H](CCC(=O)O)NC(=O)c2cc(N3CCN(C(=O)CN(C)C)CC3)cc(-c3ccccc3)n2)CC1 | Stable | 2.8 nM | 710 nM | Stable | 2.5 |  |  |  | 
CCCCOC(=O)N1CCN(C(=O)[C@H](CCC(=O)O)NC(=O)c2cc(N3CCC(CN4CCCC4=O)CC3)cc(-c3ccccc3)n2)CC1 | Stable | 0.79 nM | 1100 nM | Stable | 1.5 |  |  |  | 
CCCCCOC(=O)N1CCN(C(=O)[C@H](CCC(=O)O)NC(=O)c2cc(N3CCC(CCN(C)C)CC3)cc(-c3ccccc3)n2)CC1 | Stable | 12 nM | 390 nM | Stable | 0.54 | 5.1 L/kg | 145 mL/min/kg | 24 min | 
CCCCOC(=O)N1CCN(C(=O)[C@H](CCC(=O)O)NC(=O)c2cc(N3CCC(C(=O)NC(C)C)CC3)cc(-c3ccccc3)n2)CC1 | Stable | 4.3 nM | 620 nM | Stable | 0.82 |  |  |  | 
CCCCCOC(=O)N1CCN(C(=O)[C@H](CCC(=O)O)NC(=O)c2cc(N3CCC[C@@H](O)C3)cc(-c3ccccc3)n2)CC1 | Stable | 16 nM | 4400 nM | Stable | 4.9 |  |  |  | 
CCCCCOC(=O)N1CCN(C(=O)[C@H](CCC(=O)O)NC(=O)c2cc(N3CCC(CCN4CCCC4)CC3)cc(-c3ccccc3)n2)CC1 | Stable | 8 nM | 750 nM | Stable | 0.59 |  |  |  | 
CCCCOC(=O)N1CCN(C(=O)[C@H](CCC(=O)O)NC(=O)c2cc(N3CCC(CN(C)C)CC3)cc(-c3ccccc3)n2)CC1 | Stable | 3.2 nM | 890 nM | Stable | 1.3 |  |  |  | 
CCCCCOC(=O)N1CCN(C(=O)[C@H](CCC(=O)O)NC(=O)c2cc(N3CCN(C)CC3)cc(-c3ccccc3)n2)CC1 | Stable | 15 nM | 2300 nM | Stable | 2.5 | 10 L/kg | 141 mL/min/kg | 48 min | 
